{"source": "patent US20110053897A1", "about": "(IRM LLC, priority 2009, published 2011)"}
{"molecular_target": "T1, Syk kinase (Homo sapiens, UniProt P43405)", "T1 construct": "purchased", "test": "Syk kinase inhibition, Caliper LabChip off-chip mobility-shift kinase assay", "assay_type": "biochemical", "settings": "Caliper LabChip assay; read-out: Syk Enzyme IC50", "procedure": "(§1) Compounds of the examples and Table 1 provided herein were assayed to measure their capacity to inhibit Syk kinase.\n(§2) Compounds of the examples and Table 1 provided herein were assessed for their ability to inhibit Syk kinase by utilizing Caliper Life Sciences' proprietary LabChip™ technology. The off-chip incubation mobility-shift kinase assay uses a microfluidic chip to measure the conversion of a fluorescent peptide substrate to a phosphorylated product. The reaction mixture, from a microtiter plate well, is introduced through a capillary sipper onto the chip, where the nonphosphorylated substrate and phosphorylated product are separated by electrophoresis and detected via laser induced fluorescence. […] The phosphorylated product migrates through the chip faster than the non-phosphorylated substrate, and signals from the two forms of the peptide appear as distinct peaks. Caliper's data analysis software (HTSWA) determines peak heights, from which the ratio of product to the peak sum P/(P+S) and percent (%) conversion is calculated. This value is used to compare compound wells to control wells present on the plate, and thereby determine the % inhibition values for the compound. The formula used to calculate % inhibition is as follows, where C100% is the average % conversion of the 100% activity wells and Co% is the average % conversion of the 0% activity wells: (1−(% conversionofsample−C0%)/(C100%−C0%))*100.\n(§3) Compounds (10 mM stocks in 100% DMSO) are diluted to a final concentration of 5 μM for single point inhibition experiments, and a series dilution of 10, 3, 1, 0.3, 0.1, 0.03, 0.01, 0.003, 0.001, 0.0003, 0.0001, and 0.00003 μM were made for IC50 determination. Generally, 12 μL of enzyme buffer containing purified kinase (various amount; various suppliers), 100 mM HEPES, pH 7.5, 1 mM DTT (Calbiochem, 2333153), 10 mM MgCl2 (Sigma, M-1028) or 10 mM MnCl2 (Sigma, M-1787) (assay specific), and 0.002% Brij-35 (Sigma, B4184) are added to each well. Compound and enzyme are allowed to pre-incubate for 15 minutes. 12 μL of peptide/ATP buffer containing 100 mM HEPES, pH 7.5, 1.5 μM fluorescein-labeled peptide (specific to kinase of interest), ATP (at KM apparent, Sigma, A9187), and 0.002% Brij-35 is then added to each well to initiate the reaction. The final concentration of DMSO in the well is 4%. Generally, reactions are incubated for 1 to 1.5 hours at room temperature to obtain adequate conversion of peptide to phosphorylated product in the linear range of the reaction. Reactions are terminated with the addition of 45 μL of Stop Buffer (containing 20 mM EDTA). Plates are then read on the LabChip 3000 using a 12-sipper LabChip. % conversion values and % inhibition values are obtained as provided and IC50 curves of compounds are generated using GraphPad Prism Version 4 or 5.01, or XLfit Version 4.3.2. When using GraphPad Prism, a nonlinear curve fit using the sigmoidal dose response—variable slope fit was used to graph IC50 curves and determine IC50 values and hillslopes. When using XLfit, Fit Model 205 (4-Parameter Logistic Model) is used to generate and fit the IC50 curve.", "units": {"IC50": "nM"}}
{"smiles": "CC(=O)c1ccnc(Nc2cc3ccn(CCO)c(=O)c3c(NC(C)(C)C)n2)c1", "note": "[compound 684]", "IC50": 51}
{"smiles": "COc1ncc(-c2cc(Nc3cc4ccn(CCO)c(=O)c4c(NC(C)(C)C)n3)ncn2)cn1", "note": "[compound 637]", "IC50": 60}
{"smiles": "CCn1ccc2cc(Nc3cnccn3)nc(N[C@H]3CC[C@@H](CO)C3)c2c1=O", "note": "[compound 793]", "IC50": 18}
{"smiles": "CC(C)n1ccc2cc(Nc3cnccn3)nc(NC(C)(C)CO)c2c1=O", "note": "[compound 820]", "IC50": 84}
{"smiles": "Cc1ccnc(Nc2cc3ccn(C(C)C)c(=O)c3c(N[C@H]3CC[C@@H](O)CC3)n2)c1", "note": "[compound 943]", "IC50": 39}
{"smiles": "CC(C)n1ccc2cc(Nc3cnccn3)nc(NC(C)(C)C)c2c1=O", "note": "[compound 822]", "IC50": 165}
{"smiles": "Cc1ccnc(Nc2cc3ccn(CCN4CCOCC4)c(=O)c3c(N[C@@H](C)CO)n2)c1", "note": "[compound 995]", "IC50": 53}
{"smiles": "CC(C)(C)Nc1nc(Nc2cc(OCCO)ncn2)cc2ccn(C[C@H](O)CO)c(=O)c12", "note": "[compound 642]", "IC50": 29}
{"smiles": "[2H]C([2H])([2H])n1ccc2cc(Nc3cc(Cl)ccn3)nc(NC(C)(C)CO)c2c1=O", "note": "[compound 786]", "IC50": 71}
{"smiles": "CC(C)(C)Nc1nc(Nc2cc(C3CCCCC3)ncn2)cc2ccn(CCO)c(=O)c12", "note": "[compound 625]", "IC50": 452}
{"smiles": "CC[C@@H](CO)Nc1nc(Nc2cc(C)ccn2)cc2ccn(CC)c(=O)c12", "note": "[compound 597]", "IC50": 81}
{"smiles": "Cc1ccnc(Nc2cc3ccn(C(C)C)c(=O)c3c(N[C@H]3CC[C@H](O)CC3)n2)c1", "note": "[compound 964]", "IC50": 51}
{"smiles": "CC(C)(C)Nc1nc(-c2cnc(N)nc2)cc2ccn(CC(=O)O)c(=O)c12", "note": "[compound 667]", "IC50": 23}
{"smiles": "CC1(Nc2nc(Nc3cnccn3)cc3cc[nH]c(=O)c23)CC1", "note": "[compound 839]", "IC50": 8}
{"smiles": "CC1(Cn2ccc3cc(-c4cnc(N)nc4)nc(NC4CCCC4)c3c2=O)COC1", "note": "[compound 760]", "IC50": 128}
{"smiles": "CC(C)(C)Nc1nc(Nc2cc(N3CCC(CO)CC3)ccn2)cc2ccn(CCO)c(=O)c12", "note": "[compound 847]", "IC50": 500}
{"smiles": "CCn1ccc2cc(Nc3cc(C)ccn3)nc(NC3CCS(=O)(=O)C3)c2c1=O", "note": "(stereo not drawn) [compound 970]", "IC50": 75}
{"smiles": "CC(C(N)=O)n1ccc2cc(-c3cnc(N)nc3)nc(NC(C)(C)C)c2c1=O", "note": "(stereo not drawn) [compound 665]", "IC50": 5}
{"smiles": "CC(C)(C)Nc1nc(Nc2cc(C3(CO)CC3)ccn2)cc2ccn(CCO)c(=O)c12", "note": "[compound 860]", "IC50": 28}
{"smiles": "CC1(Nc2nc(Nc3cc(C(C)(C)O)ncn3)cc3ccn(CC(O)CO)c(=O)c23)CC1", "note": "(stereo not drawn) [compound 729]", "IC50": 31}
{"smiles": "CC(C)(C)Nc1nc(Nc2cc(OC3CCNCC3)ncn2)cc2ccn(CCO)c(=O)c12", "note": "[compound 645, 8-(tert-butylamino)-2-(2-hydroxyethyl)-6-(6-(piperidin-4-yloxy)pyrimidin-4-ylamino)-2,7-naphthyridin-1(2H)-one]", "IC50": 5}
{"smiles": "CC(C)(C)Nc1nc(Nc2cc(CN3CCOCC3)ccn2)cc2ccn(CCO)c(=O)c12", "note": "[compound 603]", "IC50": 56}
{"smiles": "CC(C)(C)Nc1nc(Nc2cc(C(F)F)ccn2)cc2ccn(CCO)c(=O)c12", "note": "[compound 615]", "IC50": 9}
{"smiles": "COc1ccc(Nc2cc3ccn(CCO)c(=O)c3c(NC(C)(C)C)n2)nc1", "note": "[Compound No. 606, 8-(tert-butylamino)-2-(2-hydroxyethyl)-6-(5-methoxypyridin-2-ylamino)-2,7-naphthyridin-1(2H)-one]", "IC50": 793}
{"smiles": "CCn1ccc2cc(-c3cnc(N)nc3)nc(N)c2c1=O", "note": "[compound 743, 8-amino-6-(2-aminopyrimidin-5-yl)-2-ethyl-2,7-naphthyridin-1(2H)-one]", "IC50": 287}
{"molecular_target": "T1, Syk kinase", "test": "Syk kinase inhibition, Caliper LabChip off-chip mobility-shift kinase assay", "assay_type": "biochemical", "settings": "read-out: Syk Enzyme IC50", "procedure": "as §1, §2, §3", "units": {"IC50": "nM"}}
{"smiles": "Cc1cccnc1Nc1cc2cc[nH]c(=O)c2c(Nc2ccc(N3CCOCC3)cc2)n1", "note": "[compound 533]", "IC50": 382}
{"smiles": "CC(C)(C)N1CC=C(c2ccc(Nc3nc(-c4cncnc4)cc4cc[nH]c(=O)c34)cc2)CC1", "note": "[compound 94]", "IC50": 13}
{"smiles": "CCOCCN1CCC(c2ccc(Nc3nc(-c4cncc(OC)n4)cc4cc[nH]c(=O)c34)cc2C)CC1", "note": "[compound 85]", "IC50": 78}
{"smiles": "CCn1ccc2cc(Nc3cnccn3)nc(N[C@H]3CC[C@@H](O)CC3)c2c1=O", "note": "[compound 356]", "IC50": 10}
{"smiles": "CCOCCOc1ccc(Nc2nc(Nc3cc(C)ccn3)cc3ccn(C)c(=O)c23)cc1", "note": "[compound 334]", "IC50": 1720}
{"smiles": "CCN1CCN(CCc2ccc(Nc3nc(Nc4ccc(C(F)(F)F)cn4)cc4cc[nH]c(=O)c34)cc2)CC1", "note": "[compound 556]", "IC50": 631}
{"smiles": "CCn1ccc2cc(Nc3cnccn3)nc(NC[C@H]3CC[C@@](C)(O)C3)c2c1=O", "note": "[compound 417]", "IC50": 95.6}
{"smiles": "CCN1CCN(CCc2ccc(Nc3nc(-c4cnn(CC(C)C)c4)cc4cc[nH]c(=O)c34)cc2)CC1", "note": "[compound 444]", "IC50": 122}
{"smiles": "COCCCNc1nc(Nc2cc(C)ccn2)cc2cc[nH]c(=O)c12", "note": "[compound 281]", "IC50": 87}
{"smiles": "COc1cncc(-c2cc3cc[nH]c(=O)c3c(Nc3ccc(CCN4CCNC(=O)C4)cc3)n2)n1", "note": "[compound 155]", "IC50": 55}
{"smiles": "COc1cncc(-c2cc3cc[nH]c(=O)c3c(Nc3ccc(C4CCN(C(=O)[C@H](C)OC)CC4)c(C)c3)n2)n1", "note": "[compound 58]", "IC50": 40}
{"smiles": "Cc1ccnc(Nc2cc3ccn(C)c(=O)c3c(Nc3ccc(C4CCN(C)CC4)cc3)n2)c1", "note": "[compound 309]", "IC50": 16}
{"smiles": "Cc1ccnc(Nc2cc3ccn(CCO)c(=O)c3c(NC(C)(C)C)n2)c1", "note": "[compound 487]", "IC50": 102}
{"smiles": "Cc1ccc(-c2cc3cc[nH]c(=O)c3c(Nc3ccc(C4CCN(C5CC5)CC4)c(C)c3)n2)cn1", "note": "[compound 219]", "IC50": 89}
{"smiles": "CCOCC(=O)N1CCC(c2ccc(Nc3nc(-c4cncc(OC)n4)cc4cc[nH]c(=O)c34)cc2C)CC1", "note": "[compound 50]", "IC50": 75}
{"smiles": "Cn1ccc2cc(-c3cnc(N)nc3)nc(NCCN3CCOCC3)c2c1=O", "note": "[compound 36]", "IC50": 428}
{"smiles": "CCn1ccc2cc(Nc3cc(C)ccn3)nc(NC(C)(C)CO)c2c1=O", "note": "[compound 492]", "IC50": 54}
{"smiles": "COc1ccc(Nc2nc(Nc3cc(C)ccn3)cc3cc[nH]c(=O)c23)cc1OC", "note": "[compound 371]", "IC50": 233}
{"smiles": "Cc1ccnc(Nc2cc3cc[nH]c(=O)c3c(NC3CCCC3)n2)c1", "note": "[compound 292]", "IC50": 176}
{"smiles": "COCCN1CCC(c2ccc(Nc3nc(-c4cnc5nccn5c4)cc4cc[nH]c(=O)c34)cc2C)CC1", "note": "[compound 30]", "IC50": 8}
{"smiles": "CCC(=O)N1CCC(c2ccc(Nc3nc(-c4cncc(OC)n4)cc4cc[nH]c(=O)c34)cc2C)CC1", "note": "[compound 80]", "IC50": 63}
{"smiles": "CCn1ccc2cc(Nc3cnccn3)nc(N[C@@H](C)CO)c2c1=O", "note": "[compound 353]", "IC50": 35}
{"smiles": "O=c1[nH]ccc2cc(Nc3ccccn3)nc(N3CCOCC3)c12", "note": "[compound 286]", "IC50": 951}
{"smiles": "CCN1CCN(CCc2ccc(Nc3nc(Nc4ccccn4)cc4cc[nH]c(=O)c34)cc2)CC1", "note": "[compound 551]", "IC50": 200}
{"smiles": "Cc1cc(Nc2nc(Nc3ccc(C(F)(F)F)cn3)cc3cc[nH]c(=O)c23)ccc1N1CCO[C@H](C)C1", "note": "[compound 583]", "IC50": 8440}
{"smiles": "CN1CCC(c2ccc(Nc3nc(Nc4cnccn4)cc4ccn(C)c(=O)c34)cc2)CC1", "note": "[compound 344]", "IC50": 45}
{"smiles": "CC(=O)c1cc2cc[nH]c(=O)c2c(Nc2ccc(C3CCN(C4CC4)CC3)c(C)c2)n1", "note": "[compound 221]", "IC50": 253}
{"smiles": "COCCN1CCC(c2ccc(Nc3nc(-c4cncnc4)cc4cc[nH]c(=O)c34)cc2F)CC1", "note": "[compound 198]", "IC50": 31}
{"smiles": "CCc1ccnc(Nc2cc3cc[nH]c(=O)c3c(Nc3ccc(C4CCN(C5CC5)CC4)c(C)c3)n2)c1", "note": "[compound 253]", "IC50": 33}
